The numbers were not newly measured in patent US9981985B2, “Pharmaceutical formulations containing 3-(4-cinnamyl-l-piperazinyl) amino derivatives of 3-formylrifamycin SV and 3-formylrifamycin S and a process of their preparation” (Adipharm EAD, priority 2012, dated 2018), which cites them from elsewhere.

The conditions of data set [1]: in vivo.
The conditions of data set [2]: in vivo tests, in comparison to rifampicin; from U.S. Pat. No. 5,095,108.
The conditions of data set [3]: in vivo. The source holds these as a separate data set.
For data set [4] the following is noted: from U.S. Pat. No. 5,095,108.

With “sodium salt of 3-(4-cinnamyl-1-piperazinyl)-iminomethyl rifamycin SV [Compound Ib]”, in data set [1], the pharmacokinetic properties entry is “better” and the resorption entry is given as “faster”.
As to `CO[C@H]1/C=C/O[C@@]2(C)Oc3c(C)c(O)c4c(O)c(c(/C=N/N5CCN(C/C=C/c6ccccc6)CC5)c(O)c4c3C2=O)NC(=O)/C(C)=C\C=C\[C@H](C)[C@H](O)[C@@H](C)[C@@H](O)[C@@H](C)[C@H](OC(C)=O)[C@@H]1C` [Ia, 3-(4-cinnamyl-1-piperazinyl)-iminomethyl rifamycin SV], the therapeutic effect result in data set [2] is given as “higher therapeutic effect in comparison to rifampicin”. In data set [3], the serum half-life result is on record as “considerably longer”. In data set [4], the acute toxicity entry is “low”.
